Data reported in patent publication US20070161542A1, “Ptb1b photoprobes” (priority 2003, published 2007).

Molecular target: T1, PTP1B in HEPG2 whole cells (Homo sapiens, UniProt P18031)
T1 construct: Labeling of Endogenous PTP1B in HEPG2 Cell Lysate; endogenous in cells; host or cells: HepG2 (human hepatoma, ATCC)
T1 sequence (P18031 1-435): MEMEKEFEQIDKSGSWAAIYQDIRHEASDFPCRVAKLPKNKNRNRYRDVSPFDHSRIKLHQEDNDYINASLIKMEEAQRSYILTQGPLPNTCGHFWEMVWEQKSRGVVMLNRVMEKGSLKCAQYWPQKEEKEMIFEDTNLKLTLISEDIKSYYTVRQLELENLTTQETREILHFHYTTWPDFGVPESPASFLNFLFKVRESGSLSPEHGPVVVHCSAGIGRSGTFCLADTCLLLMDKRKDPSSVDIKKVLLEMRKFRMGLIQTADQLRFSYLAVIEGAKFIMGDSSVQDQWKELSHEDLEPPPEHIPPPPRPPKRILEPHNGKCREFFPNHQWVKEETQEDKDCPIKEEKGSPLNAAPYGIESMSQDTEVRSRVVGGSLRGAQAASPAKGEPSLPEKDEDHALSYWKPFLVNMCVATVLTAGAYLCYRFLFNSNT
Assay: Labeling of endogenous PTP1B in HEPG2 whole cells
Assay type: cell-based
Settings: mass balance on total counts, 5 nM probe
Experimental: Human hepatoma cells (HepG2) were obtained from American Type Culture Collection and maintained in regular MEM containing 10% FBS and 1% antibiotics at 37° C., 5% CO2. For photoprobe experiments, cells (2×10^4) were grown until 80% confluence in 6-well plates and serum starved for 14 hours by incubating in MEM with 1% antibiotics without FBS.
HEPG2 cells were grown to ˜80% confluency in 6-well dishes. Media was removed and washed twice with Hanks-Hepes buffer (15 mM Hepes). For HepG2 lysate studies, the cells were lysed on ice for 15 minutes using 1 ml lysate buffer (50 mM Tris pH 7.4, 150 mM NaCl, 1% Triton X-100, 5 mM EDTA, 5 mM DTT, Complete™ protease inhibitor tablet). […] The protein concentration of the lysates was determined by the method of Lowry (detergent compatible).
PTP1B was immunoprecipitated from HepG2 cell lysates (1 ml of 1 mg/ml) using 3.5 ug of anti-PTP1B antibody (BDT) overnight at 4° C. with rotation. […] For autoradiogram detection of radioactivity, the gels were dried and exposed to BioMax MS film with an intensifying screen at −80° C. Protein bands were quantified using a scanning densitometer (Bio-Rad).
The compound of Example 1 at various concentrations was incubated with HEPG2 whole cells for 30 min and was irradiated on ice for 15 min. The cells were then lysed, and labeled PTP1B was measured after immunoprecipitation. […]

- cell permeability (share of probe associated with the cell): around 10%
SMILES: NC(=O)[C@H](Cc1ccc(C(F)(F)P(=O)(O)O)c(Br)c1)NC(=O)[C@H](Cc1ccc(C(F)(F)P(=O)(O)O)c(Br)c1)NC(=O)c1cc(I)cc(C2(C(F)(F)F)N=N2)c1 [Example 1, Tetraamnionium 3-bromo-4-(difluoro(phosphonato)methyl)-N-(3-iodo-5-(3-(trifluoromethyl)-3H-diaziren-3-yl)benzoyl)-L-phenylalanyl-3-bromo-4-(difluoro(phosphonato)methyl)-L-phenylalaninamide]
